{"source": "paper PMC6934184", "about": "“Selective DNA-PKcs inhibition extends the therapeutic index of localized radiotherapy and chemotherapy” (The Journal of Clinical Investigation, 2019)", "biological_target": "T1, RET V804L (Homo sapiens, UniProt P07949, V804L)", "T1 construct": "purchased Thermo Fisher Scientific (Life Technologies) SelectScreen", "T1 sequence (P07949 29-1114 V804L)": "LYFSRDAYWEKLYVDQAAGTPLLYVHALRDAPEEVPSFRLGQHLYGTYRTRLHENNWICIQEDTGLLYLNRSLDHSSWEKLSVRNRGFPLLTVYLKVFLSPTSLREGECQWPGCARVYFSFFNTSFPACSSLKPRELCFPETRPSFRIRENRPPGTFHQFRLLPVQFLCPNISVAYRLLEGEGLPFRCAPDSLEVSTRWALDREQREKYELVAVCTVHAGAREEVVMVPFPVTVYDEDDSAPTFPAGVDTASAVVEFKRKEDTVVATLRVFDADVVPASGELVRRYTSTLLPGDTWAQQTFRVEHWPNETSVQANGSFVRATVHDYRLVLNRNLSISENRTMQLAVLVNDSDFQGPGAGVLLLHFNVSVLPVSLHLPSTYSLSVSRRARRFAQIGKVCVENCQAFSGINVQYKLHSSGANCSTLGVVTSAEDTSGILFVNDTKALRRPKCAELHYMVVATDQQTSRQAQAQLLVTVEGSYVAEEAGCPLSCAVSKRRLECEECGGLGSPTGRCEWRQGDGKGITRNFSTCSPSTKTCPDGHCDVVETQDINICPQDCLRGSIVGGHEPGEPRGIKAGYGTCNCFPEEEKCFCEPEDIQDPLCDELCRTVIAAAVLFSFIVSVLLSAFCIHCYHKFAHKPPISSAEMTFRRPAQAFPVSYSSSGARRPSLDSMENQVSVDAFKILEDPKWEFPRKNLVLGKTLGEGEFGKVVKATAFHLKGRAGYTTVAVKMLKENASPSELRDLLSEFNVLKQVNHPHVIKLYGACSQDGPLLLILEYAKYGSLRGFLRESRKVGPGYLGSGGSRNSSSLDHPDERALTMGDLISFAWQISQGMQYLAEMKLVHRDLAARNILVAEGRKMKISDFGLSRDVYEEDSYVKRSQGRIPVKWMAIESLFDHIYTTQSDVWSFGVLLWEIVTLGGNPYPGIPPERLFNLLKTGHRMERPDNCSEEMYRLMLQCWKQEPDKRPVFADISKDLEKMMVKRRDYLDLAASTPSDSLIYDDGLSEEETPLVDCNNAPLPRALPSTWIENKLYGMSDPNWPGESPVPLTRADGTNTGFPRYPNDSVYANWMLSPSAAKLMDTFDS", "assay": "SelectScreen Z'LYTE", "format": "biochemical", "method_in_brief": "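SelectScreen broad panel; activity (Z'LYTE, Adapta) plus binding formats. ATP: Km app for CSF1R Z'LYTE; 10 for CAMK1 Adapta. Readout = % per kinase.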"}
{"molecule": "CN(C(=O)CN1CCOCC1)c1ccc2sc3c(-c4cccc5c(=O)cc(N6CC7CCC(C6)O7)oc45)cccc3c2c1", "note": "[NU5455]", "values": [{"measurement": "inhibition at 1 µM", "result": -9.1, "unit": "%"}]}
